Results taken from PubChem BioAssay (NCI).
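Cultured in 96-well plates, cells were exposed to test compound for 48 hours across five concentrations. TGI: total growth inhibition.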

Tests used:
Test in all cases: NCI-60 cell line screen, 48 h
786-0 renal = tested on: 786-0 renal
A498 renal = tested on: A498 renal
A549 NSCLC = tested on: A549 NSCLC
ACHN renal = tested on: ACHN renal
CAKI-1 renal = tested on: CAKI-1 renal
CCRF-CEM leukemia = tested on: CCRF-CEM leukemia
COLO 205 colon = tested on: COLO 205 colon
DLD-1 colon = tested on: DLD-1 colon
DMS 114 small cell lung = tested on: DMS 114 small cell lung
DMS 273 small cell lung = tested on: DMS 273 small cell lung
EKVX NSCLC = tested on: EKVX NSCLC
HCC-2998 colon = tested on: HCC-2998 colon
HCT-116 colon = tested on: HCT-116 colon
HCT-15 colon = tested on: HCT-15 colon
HL-60(TB) leukemia = tested on: HL-60(TB) leukemia
HOP-92 NSCLC = tested on: HOP-92 NSCLC
K-562 leukemia = tested on: K-562 leukemia
KM12 colon = tested on: KM12 colon
KM20L2 colon = tested on: KM20L2 colon
LOX IMVI melanoma = tested on: LOX IMVI melanoma
LXFL 529 NSCLC = tested on: LXFL 529 NSCLC
M19-MEL melanoma = tested on: M19-MEL melanoma
MOLT-4 leukemia = tested on: MOLT-4 leukemia
NCI-H23 lung = tested on: NCI-H23 lung
NCI-H460 lung = tested on: NCI-H460 lung
OVCAR-4 ovarian = tested on: OVCAR-4 ovarian
OVCAR-8 ovarian = tested on: OVCAR-8 ovarian
RPMI-8226 leukemia = tested on: RPMI-8226 leukemia
RXF 393 renal = tested on: RXF 393 renal
SF-268 CNS = tested on: SF-268 CNS
SF-295 CNS = tested on: SF-295 CNS
SF-539 CNS = tested on: SF-539 CNS
SK-MEL-2 melanoma = tested on: SK-MEL-2 melanoma
SK-MEL-28 melanoma = tested on: SK-MEL-28 melanoma
SK-MEL-5 melanoma = tested on: SK-MEL-5 melanoma
SK-OV-3 ovarian = tested on: SK-OV-3 ovarian
SN12C renal = tested on: SN12C renal
SNB-19 CNS = tested on: SNB-19 CNS
SNB-75 CNS = tested on: SNB-75 CNS
SNB-78 CNS = tested on: SNB-78 CNS
SR leukemia = tested on: SR leukemia
SW-620 colon = tested on: SW-620 colon
TK-10 renal = tested on: TK-10 renal
U251 CNS = tested on: U251 CNS
UACC-257 melanoma = tested on: UACC-257 melanoma
UACC-62 melanoma = tested on: UACC-62 melanoma
UO-31 renal = tested on: UO-31 renal
XF 498 CNS = tested on: XF 498 CNS
HOP-18 NSCLC = tested on: HOP-18 NSCLC
HOP-62 NSCLC = tested on: HOP-62 NSCLC
HT29 colon = tested on: HT29 colon
IGROV1 ovarian = tested on: IGROV1 ovarian
M14 melanoma = tested on: M14 melanoma
MALME-3M melanoma = tested on: MALME-3M melanoma
NCI-H226 lung = tested on: NCI-H226 lung
NCI-H522 lung = tested on: NCI-H522 lung
OVCAR-3 ovarian = tested on: OVCAR-3 ovarian
OVCAR-5 ovarian = tested on: OVCAR-5 ovarian

Measured: TGI

C[Si](C)(C)C(Sc1ccccc1)(Sc1ccccc1)Sc1ccccc1
94.1 µM: HOP-92 NSCLC
not listed: HOP-18 NSCLC | HOP-62 NSCLC | HT29 colon | IGROV1 ovarian | M14 melanoma | MALME-3M melanoma | NCI-H226 lung | NCI-H522 lung | OVCAR-3 ovarian | OVCAR-5 ovarian
> 100 µM: all other assays above

CCc1cccc(C)c1NC(=S)NC(=O)c1ccccc1C(=O)NC(=S)Nc1c(C)cccc1CC
70.8 µM: DMS 114 small cell lung
35.2 µM: NCI-H522 lung
65.4 µM: HOP-92 NSCLC
80.9 µM: OVCAR-3 ovarian
not listed: XF 498 CNS
> 100 µM: all other assays above

Cc1ccc(-c2cc(-c3ccco3)c(C#N)c(=O)n2C2OC(CO)C(O)C(O)C2O)cc1 (stereo unspecified)
59.8 µM: SK-OV-3 ovarian
50.9 µM: A498 renal
78.2 µM: MALME-3M melanoma
91.4 µM: HOP-62 NSCLC
45.7 µM: SK-MEL-5 melanoma
not listed: 786-0 renal | A549 NSCLC | CAKI-1 renal | HOP-92 NSCLC | M19-MEL melanoma | SF-539 CNS | SK-MEL-2 melanoma | SNB-75 CNS | XF 498 CNS
> 100 µM: all other assays above

CCN(CC)CCn1c2ccccc2c(=O)c2c(OC)ccc(OC)c21
81.5 µM: RXF 393 renal
97.3 µM: NCI-H226 lung
not listed: DLD-1 colon | DMS 114 small cell lung | HCC-2998 colon | SK-MEL-28 melanoma | SK-MEL-5 melanoma | SK-OV-3 ovarian | SNB-75 CNS | TK-10 renal | UACC-62 melanoma | HOP-18 NSCLC | IGROV1 ovarian
> 100 µM: all other assays above
